Results reported in patent US7060822B1, “2-pyrazolin-5-ones” (Abbott GmbH & Co. KG, priority 1999, dated 2006).

SMILES | melting point
O=C1NN=C(C2CC2)C1=Cc1cccn1-c1cc(Cl)cc(Cl)c1 [Example 59, 3-Cyclopropyl-4-[[1-(3,5-dichlorophenyl)pyrrol-2-yl)methylene]-2-pyrazolin-5-one] | 188 to 190 °C
Cc1c(CCC(=O)O)c[nH]c1C=C1C(=O)NN=C1C1CC1 [Example 99, 4-{[4-(2-Carboxyethyl)-3-methylpyrrol-2-yl]methylene}-3-cyclopropyl-2-pyrazolin-5-one] | 290 °C (dec.)
Cc1cc(C=C2C(=O)NN=C2C2CC2)[nH]c1C [Example 1, 3-Cyclopropyl-4-[(4,5-dimethylpyrrol-2-yl)methylene]-2-pyrazolin-5-one] | 220 to 222 °C
O=C1NN=C(C2CCC2)C1=Cc1ccc[nH]1 [Example 57, 3-Cyclobutyl-4-[(pyrrol-2-yl)methylene]-2-pyrazolin-5-one] | 150 to 152 °C
O=C1NN=C(COc2cccc(Cl)c2)C1=Cc1ccc[nH]1 [Example 19, 3-(3-Chlorophenyloxymethyl)-4-[(pyrrol-2-yl)methylene]-2-pyrazolin-5-one] | 165 to 167 °C
O=C1NN=C(C2CC2)C1=Cc1ccc(C(=O)O)[nH]1 [Example 110, 4-[(5-Carboxypyrrol-2-yl)methylene]-3-cyclopropyl-2-pyrazolin-5-one] | 220 °C (dec.)
Cc1ccc(C=C2C(=O)NN=C2OC(C)C)[nH]1 [Example 44, 3-Isopropoxy-4-[(5-methylpyrrol-2-yl)methylene]-2-pyrazolin-5-one] | 128 to 130 °C
CCc1ccc(C=C2C(=O)NN=C2C2CC2)[nH]1 [Example 74, 3-Cyclopropyl-4-[(5-ethylpyrrol-2-yl)methylene]-2-pyrazolin-5-one] | 163 to 165 °C
Cc1c(CCC(=O)O)c[nH]c1C=C1C(=O)NN=C1OC(C)C [Example 82, 4-{[4-(2-Carboxyethyl)-3-methylpyrrol-2-yl]methylene}-3-isopropoxy-2-pyrazolin-5-one] | 267 to 269 °C
CC(C)OC1=NNC(=O)C1=Cc1ccc(C(=O)O)[nH]1 [Example 91, 4-[(5-Carboxypyrrol-2-yl)methylene]-3-isopropoxy-2-pyrazolin-5-one] | 235 to 237 °C
O=C1NN=C(C2CCCCC2)C1=Cc1ccc[nH]1 [Example 107, 3-Cyclohexyl-4-[(pyrrol-2-yl)methylene]-2-pyrazolin-5-one] | 176 to 178 °C
Cc1[nH]c(C=C2C(=O)NN=C2OC(C)C)c(C)c1C(=O)O [Example 83, 4-[(4-Carboxy-3,5-dimethylpyrrol-2-yl)methylene]-3-isopropoxy-2-pyrazolin-5-one] | > 300 °C
O=C1NN=C(C2CC2)C1=Cc1cc(Br)c[nH]1 [Example 115, 4-[(4-Bromopyrrol-2-yl)methylene]-3-cyclopropyl-2-pyrazolin-5-one] | 210 °C (dec.)
O=C1NN=C([C@@H]2C[C@H]2c2ccccc2)C1=Cc1ccc[nH]1 (relative stereo) [Example 106, 3-(trans-2-phenylcyclopropyl)-4-[(pyrrol-2-yl)methylene]-2-pyrazolin-5-one] | 173 to 175 °C
Cc1[nH]c(C=C2C(=O)NN=C2OC(C)C)c(C)c1CN1CCOCC1 [Example 85, 4-[(3,5-Dimethyl-4-morpholinomethylpyrrol-2-yl)methylene]-3-isopropoxy-2-pyrazolin-5-one] | 162 to 164 °C
O=C1NN=C(C2CCCC2)C1=Cc1ccc[nH]1 [Example 62, 3-Cyclopentyl-4-[(pyrrol-2-yl)methylene]-2-pyrazolin-5-one] | 127 to 129 °C
Cc1c[nH]c(C=C2C(=O)NN=C2CCc2ccc(N)cc2)c1 [Example 42, 3-(4-Aminophenylethyl)-4-[(4-methylpyrrol-2-yl)methylene]-2-pyrazolin-5-one] | 178 to 180 °C
Cc1[nH]c(C=C2C(=O)NN=C2c2cnccn2)c(C)c1C(=O)O [Example 118, 4-[(4-Carboxy-3,5-dimethylpyrrol-2-yl)methylene]-3-pyrazinyl-2-pyrazolin-5-one] | 225 to 228 °C

Other lines, results leading:

melting point | SMILES
241 to 243 °C | Cc1c(C=C2C(=O)NN=C2OC(C)C)[nH]c2ccccc12 [Example 322, 3-Isopropoxy-4-[(3-methylindol-2-yl)methylene]-2-pyrazolin-5-one]
258 to 260 °C | Cc1cccc2c(C=C3C(=O)NN=C3C3CC3)cn(C)c12 [Example 290, 3-Cyclopropyl-4-[(1,7-dimethylindol-3-yl)methylene]-2-pyrazolin-5-one]
295 to 297 °C | Cc1cc(C)c(C=C2C(=O)NN=C2c2nc3ccccc3s2)[nH]1 [Example 133, 3-(Benzothiazol-2-yl)-4-[(3,5-dimethylpyrrol-2-yl)methylene]-2-pyrazolin-5-one]
253 to 255 °C | CN(C)c1ccc(C=C2C(=O)NN=C2Cc2ccccc2)cc1 [Example 358, 3-Benzyl-4-[(4-dimethylaminophenyl)methylene]-2-pyrazolin-5-one]
264 to 267 °C | CCc1c(C)[nH]c(C=C2C(=O)NN=C2c2cnccn2)c1C [Example 135, 4-[(3,5-Dimethyl-4-ethylpyrrol-2-yl)methylene]-3-pyrazinyl-2-pyrazolin-5-one]
280 to 289 °C | CN(C)c1ccc(C=C2C(=O)NN=C2C2CC2)cc1 [Example 361, 3-Cyclopropyl-4-[(4-dimethylaminophenyl)methylene]-2-pyrazolin-5-one]
197 to 198 °C | CC(C)OC1=NNC(=O)C1=Cc1ccc(N(C)C)cc1 [Example 359, 4-[(4-Dimethylaminophenyl)methylene]-3-isopropoxy-2-pyrazolin-5-one]
277 to 279 °C | O=C1NN=C(C2CCCC2)C1=Cc1c[nH]c2ccccc12 [Example 247, 3-Cyclopentyl-4-[(indol-3-yl)methylene]-2-pyrazolin-5-one]
236 to 238 °C | COc1ccc2c(c1)c(C=C1C(=O)NN=C1C1CC1)cn2C [Example 288, 3-Cyclopropyl-4-[(5-methoxy-1-methylindol-3-yl)methylene]-2-pyrazolin-5-one]
187 to 189 °C | Nc1ccc(CCC2=NNC(=O)C2=Cc2cc3ccccc3[nH]2)cc1 [Example 308, 3-(4-Aminophenylethyl)-4-[(indol-2-yl)methylene]-2-pyrazolin-5-one]
> 300 °C | O=C1NN=C(CCc2ccc(C(=O)O)cc2)C1=Cc1cc2ccccc2[nH]1 [Example 320, 3-(4-Carboxyphenylethyl)-4-[(indol-2-yl)methylene]-2-pyrazolin-5-one]
285 °C (dec.) | Cc1[nH]c(C=C2C(=O)NN=C2c2nc3ccccc3s2)c(C)c1CN1CCOCC1 [Example 134, 3-(Benzothiazol-2-yl)-4-[(3,5-dimethyl-4-morpholinomethylpyrrol-2-yl)methylene]-2-pyrazolin-5-one]
220 to 224 °C | Cc1[nH]c(C=C2C(=O)NN=C2c2cccnc2)c(C)c1CN(C)C [Example 144, 4-[(3,5-Dimethyl-4-dimethylaminomethylpyrrol-2-yl)methylene]-3-(3-pyridyl)-2-pyrazolin-5-one]
280 to 282 °C | O=C1NN=C(c2ccccc2)C1=Cc1c[nH]c2ncccc12 [Example 347, 4-[(7-Azaindol-3-yl)methylene]-3-phenyl-2-pyrazolin-5-one]
295 to 296 °C | O=C1NN=C(COc2ccc(-c3ccccc3)cc2)C1=Cc1c[nH]c2ccccc12 [Example 232, 4-[(Indol-3-yl)methylene]-3-(4-phenylphenyloxymethyl)-2-pyrazolin-5-one]
190 to 192 °C | Cc1[nH]c(C=C2C(=O)NN=C2C2CC2)c(C(C)C)c1CN(C)C [Example 200, 3-Cyclopropyl-4-[(dimethylaminomethyl-3-isopropyl-5-methylpyrrol-2-yl)methylene]-2-pyrazolin-5-one]
287 to 289 °C | CCOC1=NNC(=O)C1=Cc1cc([N+](=O)[O-])c[nH]1 [Example 153, 3-Ethoxy-4-[(4-nitropyrrol-2-yl)methylene]-2-pyrazolin-5-one]
221 to 224 °C | COc1ccc2[nH]c(C=C3C(=O)NN=C3C3CC3)cc2c1 [Example 317, 3-Cyclopropyl-4-[(5-methoxyindol-2-yl)methylene]-2-pyrazolin-5-one]
295 to 297 °C | O=C1NN=C(CCc2ccc([N+](=O)[O-])cc2)C1=Cc1c[nH]c2ccccc12 [Example 240, 4-[(Indol-3-yl)methylene]-3-(4-nitrophenylethyl)-2-pyrazolin-5-one]
144 to 146 °C | CCN(CC)CCc1c(C)[nH]c(C=C2C(=O)NN=C2c2ncccn2)c1C [Example 206, 4-{[4-(2-Diethylaminoethyl)-3,5-dimethylpyrrol-2-yl]methylene}-3-(2-pyrimidinyl)-2-pyrazolin-5-one]
242 to 245 °C | O=C1NN=C(CCc2ccc(O)cc2)C1=Cc1cc2ccccc2[nH]1 [Example 307, 3-(4-Hydroxyphenylethyl)-4-[(indol-2-yl)methylene]-2-pyrazolin-5-one]
255 to 257 °C | CCOC1=NNC(=O)C1=Cc1[nH]cc(C)c1CCC(=O)O [Example 157, 4-{[3-(2-Carboxyethyl)-4-methylpyrrol-2-yl]methylene}-3-ethoxy-2-pyrazolin-5-one]
252 to 254 °C | CCOC(=O)c1c(C)[nH]c(C=C2C(=O)NN=C2C(F)(F)F)c1C [Example 160, 4-[(3,5-Dimethyl-4-ethoxycarbonylpyrrol-2-yl)methylene]-3-trifluoromethyl-2-pyrazolin-5-one]
218 to 220 °C | O=C1NN=C(CCCc2ccccc2)C1=Cc1c[nH]c2ccccc12 [Example 234, 4-[(Indol-3-yl)methylene]-3-(3-phenylpropyl)-2-pyrazolin-5-one]
158 to 160 °C | CCOC1=NNC(=O)C1=Cc1[nH]c(C)c(C(=O)NCCN(C)C)c1C [Example 155, 4-{[3,5-Dimethyl-4-(2-dimethylaminoethylaminocarbonyl)pyrrol-2-yl)methylene}-3-ethoxy-2-pyrazolin-5-one]
255 to 257 °C | CCOC(=O)c1c[nH]c(C=C2C(=O)NN=C2c2cnccn2)c1-c1ccccc1 [Example 164, 4-[(4-Ethoxycarbonyl-3-phenylpyrrol-2-yl)methylene]-3-pyrazinyl-2-pyrazolin-5-one]
